This is an account of results in ChEMBL document CHEMBL3352247, “Synthesis and antimycobacterial evaluation of 5-alkylamino-N-phenylpyrazine-2-carboxamides” (Bioorg Med Chem, 2015).

Molecules are shown by their SMILES. ≈ marks a conversion by molar mass, not a printed value. Calls of active or inactive are those of the source. The rule behind the calls is not given here.

The test system of assay [1] is Mycobacterium tuberculosis. In words: Antimycobacterial activity against Mycobacterium tuberculosis H37Rv CNCTC My 331/88 after 10 to 14 days by AlamarBlue assay. The format is functional. (In general: Alamar Blue is a resazurin reagent that responds to reducing activity.)
Assay [2] can be described thus: Antimycobacterial activity against Mycobacterium avium subsp. avium Chester CNCTC My 80/72 after 5 days by AlamarBlue assay. The format is functional. As to conditions: Chester CNCTC My 80/72, 120 h.
For assay [3], the system named is Mycobacterium tuberculosis. In words: Antimycobacterial activity against Mycobacterium tuberculosis H37Rv CNCTC My 331/88 in Middlebrook 7H9 broth after 5 days by AlamarBlue assay. The format is functional. To be noted: H37Rv CNCTC My 331/88, 120 h.
The next assay concerns Lichtheimia corymbifera. In words: Antifungal activity against Absidia corymbifera 272 after 24 to 48 hrs by two-fold dilution method. The format is functional, organism-based.
The next assay has as its system Candida tropicalis. In words: Antifungal activity against Candida tropicalis 156 after 24 to 48 hrs by two-fold dilution method. The format is functional, organism-based.
Assay [4] relates to Staphylococcus aureus. The assay is described as follows: Antibacterial activity against Staphylococcus aureus CCM 4516/08 after 24 to 48 hrs by broth microdilution method. The format is functional, organism-based.
The test system of a further assay is Nakaseomyces glabratus. The assay is described as follows: Antifungal activity against Candida glabrata 20/I after 24 to 48 hrs by two-fold dilution method. The format is functional, organism-based.
A further assay relates to Pichia kudriavzevii. The assay is described as follows: Antifungal activity against Candida krusei E28 after 24 to 48 hrs by two-fold dilution method. The format is functional, organism-based.
Assay [5] has as its system Klebsiella pneumoniae. The assay is described as follows: Antibacterial activity against ESBL-positive Klebsiella pneumoniae J 14368/08 clinical isolate after 24 to 48 hrs by broth microdilution method. The format is functional, organism-based. On the technique in general: In broth dilution the organism is exposed to a series of concentrations in liquid medium.
Another assay concerns Aspergillus fumigatus. The assay is described as follows: Antifungal activity against Aspergillus fumigatus 231 after 24 to 48 hrs by two-fold dilution method. The format is functional, organism-based.
The subject of a further assay is Candida albicans. The assay is described as follows: Antifungal activity against Candida albicans ATCC 44859 after 24 to 48 hrs by two-fold dilution method. The format is functional, organism-based.
In assay [6] the test system is Staphylococcus epidermidis. In words: Antibacterial activity against Staphylococcus epidermidis H 6966/08 clinical isolate after 24 to 48 hrs by broth microdilution method. The format is functional, organism-based.
The next assay concerns Pseudomonas aeruginosa. In words: Antibacterial activity against Pseudomonas aeruginosa CCM 1961 after 24 to 48 hrs by broth microdilution method. The format is functional, organism-based.
The nature of assay [7]: Antimycobacterial activity against Mycobacterium avium subsp. avium Chester CNCTC My 80/72 in Middlebrook 7H9 broth after 5 days by AlamarBlue assay. The format is functional. To be noted: Chester CNCTC My 80/72, 120 h.
The subject of the next assay is Enterococcus sp. The assay is described as follows: Antibacterial activity against Enterococcus sp. J 14365/08 clinical isolate after 24 to 48 hrs by broth microdilution method. The format is functional, organism-based.
For assay [8], the system named is Trichophyton mentagrophytes. The assay is described as follows: Antifungal activity against Trichophyton mentagrophytes 445 after 72 to 120 hrs by two-fold dilution method. The format is functional, organism-based.
In assay [9] the test system is Mycobacterium kansasii. The assay is described as follows: Antimycobacterial activity against Mycobacterium kansasii CNCTC My 235/80 in Middlebrook 7H9 broth after 5 days by AlamarBlue assay. The format is functional. To be noted: CNCTC My 235/80, 120 h.
The test system of assay [10] is Staphylococcus aureus. In words: Antibacterial activity against methicillin-resistant Staphylococcus aureus H 5996/08 clinical isolate after 24 to 48 hrs by broth microdilution method. The format is functional, organism-based.
For a further assay, the system named is Escherichia coli. In words: Antibacterial activity against Escherichia coli CCM 4517 after 24 to 48 hrs by broth microdilution method. The format is functional, organism-based.
The test system of assay [11] is Klebsiella pneumoniae. In words: Antibacterial activity against Klebsiella pneumoniae D 11750/08 clinical isolate after 24 to 48 hrs by broth microdilution method. The format is functional, organism-based.
The test system of the next assay is Trichosporon asahii. In words: Antifungal activity against Trichosporon asahii 1188 after 24 to 48 hrs by two-fold dilution method. The format is functional, organism-based.
For assay [12], the system named is Mycobacterium kansasii. The assay is described as follows: Antimycobacterial activity against Mycobacterium kansasii CNCTC My 235/80 after 5 to 7 days by AlamarBlue assay. The format is functional.

As usually defined, the MIC is the lowest concentration found to suppress growth. A lower MIC goes with inhibition by little substance. As for `O=C(Nc1ccccc1Cl)c1cnc(Cl)cn1`, the MIC is 2 µM (≈ 0.536 µg/mL) in assay [1] and over 100 µg/mL in assay [2].

With `O=C(Nc1ccccc1Cl)c1cnc(NCCCO)cn1`, the MIC (in assay [3]; in [7]; in the assay on Mycobacterium kansasii [9]) was over 100 µg/mL each time. The result in the assay on Lichtheimia corymbifera, with Candida tropicalis, with Staphylococcus aureus [4], in the assay with Nakaseomyces glabratus, in the assay on Pichia kudriavzevii and with Klebsiella pneumoniae [5] was inactive. Also, the result (with Aspergillus fumigatus; in the assay on Candida albicans; in assay [6]; in the assay with Pseudomonas aeruginosa; in the assay on Enterococcus sp.; in assay [8]) was inactive. Further, the result in the assay with Staphylococcus aureus [10], in the assay on Escherichia coli, in the assay on Klebsiella pneumoniae [11] and with Trichosporon asahii was inactive.

Consider `O=C(Nc1ccccc1Cl)c1cnc(NCCCc2ccccc2)cn1`, for which the MIC (in assay [3]; in [7]; with Mycobacterium kansasii [9]) was over 100 µg/mL throughout. In addition, the outcome in the assay with Lichtheimia corymbifera, with Candida tropicalis, in the assay with Staphylococcus aureus [4], in the assay on Nakaseomyces glabratus, in the assay with Pichia kudriavzevii and with Klebsiella pneumoniae [5] was inactive. Also, the outcome (in the assay on Aspergillus fumigatus; in the assay on Candida albicans; in assay [6]; in the assay with Pseudomonas aeruginosa; in the assay with Enterococcus sp.; in assay [8]) was inactive. The result with Staphylococcus aureus [10], in the assay on Escherichia coli, in the assay on Klebsiella pneumoniae [11] and with Trichosporon asahii was inactive.

In the case of `NNC(=O)c1ccncc1` [ISONIAZID], the figures for the MIC (in [1]; in [2]; with Mycobacterium kansasii [12]) were 1.5 µM (≈ 0.206 µg/mL), 12.5 µg/mL (≈ 91.1 µM) and 11.4 µM, respectively.

Turning to `O=C(Nc1ccccc1)c1cnc(NCCO)cn1`, the MIC (in assay [3]; in assay [7]; against Mycobacterium kansasii [9]) was over 100 µg/mL each time. For the same compound, the outcome in the assay with Lichtheimia corymbifera, in the assay on Candida tropicalis, in the assay with Staphylococcus aureus [4], with Nakaseomyces glabratus, with Pichia kudriavzevii and in the assay with Klebsiella pneumoniae [5] was inactive. Moreover, the outcome (with Aspergillus fumigatus; in the assay on Candida albicans; in assay [6]; in the assay with Pseudomonas aeruginosa; with Enterococcus sp.; in [8]) was inactive. Also, the result in the assay with Staphylococcus aureus [10], in the assay with Escherichia coli, with Klebsiella pneumoniae [11] and with Trichosporon asahii was inactive.

Turning to `COCCCNc1cnc(C(=O)Nc2ccccc2Cl)cn1`, the MIC (in assay [3]; in assay [7]; against Mycobacterium kansasii [9]) was over 100 µg/mL each time. Besides, the result in the assay with Lichtheimia corymbifera, with Candida tropicalis, in the assay with Staphylococcus aureus [4], in the assay with Nakaseomyces glabratus, with Pichia kudriavzevii and in the assay with Klebsiella pneumoniae [5] was inactive. Also, the outcome (with Aspergillus fumigatus; in the assay with Candida albicans; in assay [6]; in the assay on Pseudomonas aeruginosa; in the assay with Enterococcus sp.; in assay [8]) was inactive. In addition, the outcome with Staphylococcus aureus [10], in the assay on Escherichia coli, with Klebsiella pneumoniae [11] and in the assay with Trichosporon asahii was inactive.

For the compound `O=C(Nc1ccccc1)c1cnc(NCCc2ccccc2)cn1`, the values for the MIC (in assay [3]; in assay [7]; in the assay with Mycobacterium kansasii [9]) were 39.3 µM, over 100 µg/mL and over 100 µg/mL, respectively. The outcome in the assay on Lichtheimia corymbifera, with Candida tropicalis, with Staphylococcus aureus [4], in the assay on Nakaseomyces glabratus, with Pichia kudriavzevii and with Klebsiella pneumoniae [5] was inactive. Also, the result (in the assay with Aspergillus fumigatus; in the assay on Candida albicans; in assay [6]; with Pseudomonas aeruginosa; with Enterococcus sp.; in [8]) was inactive. Also, the outcome in the assay with Staphylococcus aureus [10], with Escherichia coli, with Klebsiella pneumoniae [11] and in the assay on Trichosporon asahii was inactive.

As for `O=C(Nc1ccccc1)c1cnc(NCCCCO)cn1`, the MIC in [3] was 87.3 µM; in assay [7], over 100 µg/mL; in the assay with Mycobacterium kansasii [9], over 100 µg/mL. The outcome in the assay on Lichtheimia corymbifera, in the assay on Candida tropicalis, in the assay with Staphylococcus aureus [4], with Nakaseomyces glabratus, in the assay with Pichia kudriavzevii and with Klebsiella pneumoniae [5] was inactive. Moreover, the result (with Aspergillus fumigatus; with Candida albicans; in assay [6]; in the assay on Pseudomonas aeruginosa; in the assay on Enterococcus sp.; in assay [8]) was inactive. The result in the assay on Staphylococcus aureus [10], with Escherichia coli, in the assay on Klebsiella pneumoniae [11] and in the assay on Trichosporon asahii was inactive.

For the compound `O=C(Nc1ccccc1Cl)c1cnc(NCCCCO)cn1`, the MIC (in assay [3]; in assay [7]; against Mycobacterium kansasii [9]) was over 100 µg/mL each time. For the same compound, the outcome in the assay on Lichtheimia corymbifera, with Candida tropicalis, with Staphylococcus aureus [4], with Nakaseomyces glabratus, in the assay on Pichia kudriavzevii and in the assay with Klebsiella pneumoniae [5] was inactive. Further, the outcome (in the assay with Aspergillus fumigatus; in the assay with Candida albicans; in assay [6]; with Pseudomonas aeruginosa; with Enterococcus sp.; in assay [8]) was inactive. In addition, the result in the assay with Staphylococcus aureus [10], in the assay with Escherichia coli, in the assay on Klebsiella pneumoniae [11] and with Trichosporon asahii was inactive.

`COCCCNc1cnc(C(=O)Nc2ccccc2)cn1`: the MIC is 87.3 µM in assay [3], over 100 µg/mL in assay [7] and over 100 µg/mL against Mycobacterium kansasii [9]. The outcome in the assay with Lichtheimia corymbifera, in the assay with Candida tropicalis, in the assay with Staphylococcus aureus [4], with Nakaseomyces glabratus, with Pichia kudriavzevii and in the assay with Klebsiella pneumoniae [5] was inactive. The result (in the assay with Aspergillus fumigatus; with Candida albicans; in [6]; in the assay on Pseudomonas aeruginosa; with Enterococcus sp.; in assay [8]) was inactive. The result in the assay with Staphylococcus aureus [10], in the assay on Escherichia coli, in the assay on Klebsiella pneumoniae [11] and in the assay with Trichosporon asahii was inactive.

As for `Nc1cnc(C(=O)Nc2ccccc2)cn1`, the minimal inhibitory concentration (MIC) (in assay [3]; in assay [7]; in the assay with Mycobacterium kansasii [9]) was over 100 µg/mL each time. The result in the assay on Lichtheimia corymbifera, in the assay on Candida tropicalis, with Staphylococcus aureus [4], with Nakaseomyces glabratus, in the assay with Pichia kudriavzevii and in the assay on Klebsiella pneumoniae [5] was inactive. Moreover, the result (in the assay with Aspergillus fumigatus; in the assay on Candida albicans; in assay [6]; in the assay on Pseudomonas aeruginosa; in the assay with Enterococcus sp.; in assay [8]) was inactive. Moreover, the result in the assay with Staphylococcus aureus [10], in the assay on Escherichia coli, with Klebsiella pneumoniae [11] and in the assay on Trichosporon asahii was inactive.

On to `NC(=O)c1cnccn1` [PYRAZINAMIDE], for which the MIC was 50.8 µM (≈ 6.25 µg/mL) in [1], over 100 µg/mL in assay [2] and over 100 µg/mL against Mycobacterium kansasii [12].
